Test results from patent US10765625B2, “Knottin-drug conjugates and methods of using the same” (THE BOARD OF TRUSTEES OF THE LELAND STANFORD JUNIOR …, priority 2016, dated 2020).

Legend:
U87MG cells [1] = test: Competition binding assay with AF488-labeled EETI-2.5F (AF488-1), flow cytometry; conditions: competition with 1 nM AF488-1, 4° C., 3 hours, read-out: IC50 (nM), binding affinity
Method: Once the knottin-drug conjugates 5a-d were prepared, their binding affinity to U87MG glioblastoma cells, which are known to have elevated expression of tumor-associated integrins, was tested. […] To measure the relative binding affinities of knottins 1 and 2 and KDCs 5a-d, competition binding assays were performed using AlexaFluor 488-conjugated EETI-2.5F (AF488-1) as previously described (J. W. Kim, et al., J. Am. Chem. Soc. 2015, 137, 6-9). Cells (5×10^4 per sample) were detached with 0.05% Trypsin-EDTA, washed with IBB (25 mM Tris pH 7.4, 150 mM NaCl, 2 mM CaCl2, 1 mM MgCl2, 1 mM MnCl2, and 0.1% bovine serum albumin), and incubated with 1 nM AF488-1 and varying concentrations of competitors in 800 μL of IBB at 4° C. for 3 hours. The cells were washed twice with 800 μL of PBSA (phosphate buffered saline containing 0.1% bovine serum albumin) and the fluorescence of the surface-bound AF488-1 was determined using flow cytometry. The fluorescence was normalized to that of cells treated with AF488-1 alone to obtain the fraction bound. Half-maximal inhibitory concentration (IC50) values were determined by nonlinear regression analysis. Error bars represent the standard deviation of experiments performed in triplicate.

U87MG cells [2] = test: Integrin-blocking competition: cell proliferation (CCK-8) after pre-treatment with EETI-2.5F (1); format: cell-based; conditions: 1 μM 1, 3 h pre-treatment and co-treatment
Method: U87MG, and PANC-1 cells were grown in Dulbecco's Modified Eagle Medium (DMEM) with 10% fetal bovine serum (FBS) and 1% penicillin/streptomycin. MDA-MB-468 cells were grown in DMEM and Ham's F-12 medium (DMEM/F12) with 10% FBS and 1% penicillin/streptomycin. A2780 and BxPC3 cells were grown in Roswell Park Memorial Institute medium (RPMI) 1640+L-glutamine, with 10% FBS and 1% penicillin/streptomycin. D270 cells were grown in MEM (Richter's modification, no phenol red) with 10% FBS and 0.1% Gentamicin. Unless otherwise specified, cells were incubated at 37° C., 5% CO2. Flow cytometry was performed using an EMD Millpore Guava EasyCyte 8HT flow cytometer and the resulting data were evaluated using FlowJo software provided by TreeStar, Inc. Cell proliferation was measured using the Dojindo Cell Counting Kit-8 by replacing the media in each well with 100 μL of media containing 10% WST-8. After incubation for 1 h at 37° C., absorbance, A, at 450 nm was measured with a BioTek Synergy H4 microtiter plate reader. The background signal of CCK-8 alone was subtracted from all samples. Cell proliferation was then expressed as a percentage of absorbance relative to the control of untreated cells (Equation 2). Nonlinear regression analysis was performed using GraphPad Prism.
One possible explanation for the apparent hENT1-independence of 5d is that its route of internalization could be integrin-mediated. The role of integrin-binding in the biological potency and hENT1-independence of 5d was determined. A competition experiment was carried out in which U87MG cells were pre-treated with unconjugated EETI-2.5F (1) in order to block integrins on the cell surface. The role of integrin-binding was studied by measuring the proliferation of U87MG cells that had been pre-treated with EETI-2.5F (1) when exposed to increasing doses of 3 and KDCs 5a, 5c, and 5d. […] Media used to prepare varying concentrations of drug, protein, or protein-drug conjugate also contained 1 μM of 1. Prior to treatment, cells were incubated for 3 h at 37° C., 5% CO2 with fresh media containing 1 μM 1. After this pre-treatment, cells were incubated with varying concentrations of 5a, 5c, or 5d for 24 h and then media was replaced with fresh media and cells were incubated for an additional 48 h. Cell proliferation was measured using the Cell Counting Kit-8 by replacing the media in each well with 100 μL of media containing 10% WST-8. After incubation for 1 h at 37° C., absorbance at 450 nm was measured with a Synergy H4 microtiter plate reader. Cell proliferation was measured according to the method described in Section 1.3. Error bars represent the standard deviation of experiments performed in triplicate.

With `CC(C)C[C@@H]1NC(=O)[C@@H]2CSSC[C@@H](C(=O)NCC(=O)O)NC(=O)[C@H](Cc3ccccc3)NC(=O)CNC(=O)[C@H](CC(N)=O)NC(=O)[C@@H]3CCCN3C(=O)CNC(=O)[C@@H]3CSSC[C@H](NC(=O)[C@H]([C@@H](C)O)NC(=O)[C@H](CC(C)C)NC(=O)[C@@H]4CCCN4C(=O)[C@@H]4CCCN4C(=O)[C@H](CC(N)=O)NC(=O)[C@H](CC(=O)O)NC(=O)CNC(=O)[C@H](CCCNC(=N)N)NC(=O)[C@@H]4CCCN4C(=O)[C@H](CCCNC(=N)N)NC(=O)[C@@H]4CCCN4C(=O)[C@@H](NC(=O)CN)CSSC[C@H](NC(=O)CNC(=O)[C@H](C)NC1=O)C(=O)N[C@@H](C(C)C)C(=O)N3)C(=O)N[C@@H](CCCn1cc(CCC(=O)N[C@H](C(=O)N[C@@H](C)C(=O)Nc3ccc(COC(=O)Nc4ccn([C@@H]5O[C@H](CO)[C@@H](O)C5(F)F)c(=O)n4)cc3)C(C)C)nn1)C(=O)N[C@@H](CCC(N)=O)C(=O)N[C@@H](CC(=O)O)C(=O)N[C@@H](CO)C(=O)N[C@@H](CC(=O)O)C(=O)N2` [5d] the IC50 (U87MG cells [1]) was 1.5 ± 0.2 nM and the “Effect of integrin blocking by pre-treatment with 1 on potency (in words)” value (U87MG cells [2]) was “abolishes the potency”.
